One block for each compound: values may come before it.
Tests used:
PC12 cells [1] = assay: Neuroprotective effect against H2O2-induced cytotoxicity, MTT cell viability; type: cell-based; settings: Rattus norvegicus, PC-12, 10 μM pretreatment 4 h, then H2O2 (1 μM) 2 h, read-out: Cell viability (survival rate compared to control)
Method: (§1) The in vitro neurotoxicity model was established using H2O2 to induce oxidative stress and injury in PC12 cells.
Briefly, PC12 cells were seeded in 96-well plates at the density of 6 × 10^4 cell/well and incubated at 37 °C for 24 h. […] After the treatment, the cells were observed under inverted phase contrast microscopy and cell images were recorded. Subsequently, the cells viability was assessed by MTT assay using a microplate reader.

[2] = Distribution in brain in mice, brain homogenate; type: in vivo, Kunming mice; settings: for AUC(0–t): brain homogenate, ibuprofen after hydrolysis of sample, 10 mg/kg (calculated as ibuprofen) tail vein
Method: Kunming mice weighing 20–22 g were purchased from DOSSY Experimental Animal Center of Chengdu (Sichuan, China). All animal procedures for this study were approved by the Experiment Animal Administrative Committee of Sichuan University (P.R. China).
At appropriate time interval (5, 10, 15, 30, 45, 60, 90, 120, 240 and 480 min), blood was collected from the eye socket of mouse into a tube containing heparin, and centrifuged at 5000 rpm for 5 min. The supernatant was collected as plasma sample. The animals were killed by cervical dislocation, and the brain tissue was removed, and then washed with saline for three times to remove the remained blood and rolled over on the filter paper to remove the main vessel. All the brain tissues were homogenized with twice amount of saline. An aliquot of 10 μl of internal standard (naproxen, 30 μg/ml) was added into 200 μl plasma or 200 μl brain homogenate, the mixture was vortexed with 200 μl methanol for 5 min. Then, an aliquot of 50 μl of 6 M NaOH aqueous solution was added to the spiking mixture. […] Followed by vortexing for 5 min, 0.6 ml acetonitrile was added and the mixture was centrifuged at 15,000 rpm for 10 min. The separated supernatant was evaporated to dryness at 40 °C under air flow. The residues were redissolved in 50 μl methanol and centrifuged at 15,000 rpm for 10 min, and then 20 μl of the supernatant was injected into the HPLC system for analysis.
The area under the curve (AUC0–t) and the maximal concentration (Cmax) were calculated by Data and Statistics (DAS, Shanghai, China). The statistical analysis of the samples was performed by using a Student’s t-test with p values < .05 as the minimal level of significance. The relative uptake efficiency (RE) and concentration efficiency (CE) were calculated to evaluate the brain-targeting property of prodrugs. The values of REbrain and CEbrain are defined as follows: RE = (AUC 0) Pro/(AUC 0) Ibu, CE=(Cmax)Pro/(Cmax)Ibu.

[3] = tested on: cerebral ischemia model induced by bilateral common carotid artery occlusion; assay: Brain ischemia model, TTC staining of brain sections; type: in vivo, Wistar rats; settings: rats, 1 mg/kg (calculated as ibuprofen) tail vein, 30 min before 1.5 h ligation
[4] = tested on: cerebral ischemia model induced by bilateral common carotid artery occlusion; assay: Brain ischemia model, SOD, MDA and GSH in brain homogenate; type: in vivo, Wistar rats; settings: rat brain homogenate, 1 mg/kg (calculated as ibuprofen) tail vein; for MDA level: relative to sham group
PC12 cells [5] = assay: SOD activity after H2O2 in vitro (colorimetry kit); type: cell-based; settings: 10 μM pretreatment 4 h, then H2O2 (1 μM) 2 h
Method: as §1
The ROS assay kit (S0033; Beyotime Institute of Biotechnology, Jiangsu, China) in DCFH-DA method was used to determine the intracellular ROS generation. PC12 cells were seeded in six-well plates at a density of 5 × 10^5 cells/well and incubated at 37 °C for 24 h. […] Then trypsin–EDTA was used to harvest the cells, which were washed three times with PBS afterward, and finally stained with 2′,7′-dichlorofluorescein diacetate (DCFH-DA, 10 μM) and incubated for 20 min at 37 °C in the dark. After centrifugation (2000 rpm, 3 min), the cell pellet was washed three times with PBS, resuspended in PBS before flow cytometer analysis (Ex 488 nm and Em 525 nm). SOD is an index of superoxide level which neutralizes free oxygen radicals, usually being tested along with ROS level showing oxidative stress. In brief, after harvesting, the cells were resuspended in PBS and lysed by Ultrasonic cell grinder (SCIENTZ-II D, Zhejiang, China) to obtain the cell lysis solution. Then, the SOD activity was evaluated using colorimetry kits (A001; Nanjing Jiancheng Bioengineering Institute, Nanjing, China). Untreated cells were used as the control.

[6] = In vitro chemical stability in phosphate buffers; type: physicochemical; settings: 37 °C
Method: The in vitro chemical stability of prodrugs was investigated by incubating the prodrugs in pH 2.5, 5.0, 7.4 and 8.0 phosphate buffers, respectively. Briefly, 1 ml of the prodrugs methanol solution (250 μg/ml) was added into 4 ml different buffer separately. The entire system was kept at 37 ± 0.5 °C with continuous shaking at 100 rpm/min. 200 μl medium samples were taken at the following time points: 0, 0.5, 1, 2, 3, 6, 12, and 24 h, and then replaced by fresh medium. The samples were analyzed by HPLC (Shimadzu). The analysis was accomplished on a SinoChrom ODS-C18 column (Dalian, China) (200 × 4.6 mm, […]), thermostated at 35 °C. The mobile phase was composed of methanol/water (73:27), and the pH was adjusted to 2.86 with 10% phosphoric acid. The UV […] was 225 nm and the flow rate was set at 1.0 ml/min with a 20 μl injection volume.
These solutions were maintained at 37 °C, and the aliquots were withdrawn in predetermined time intervals, then the concentrations of the prodrugs were determined by HPLC method.

[7] = Metabolic stability in mice plasma; type: in vitro ADME; settings: 37 °C
Method: (§2) The preliminary metabolic stability of prodrugs was studied by incubating in plasma and brain homogenate, respectively. 1 ml of the prodrugs methanol solution (250 μM) was added into 4 ml plasma or brain homogenate. Then, the entire system was kept at 37 ± 0.5 °C with continuous shaking at 100 rpm/min. 200 μl samples were taken at the following time points: 0, 0.5, 1, 2, 3, 6, 12, and 24 h, and then replaced by plasma or brain homogenate. The internal standard (naproxen, 10 μl, 30 μg/ml) was added to each sample followed by 200 μl acetonitrile.
(§3) The metabolic stability of the prodrugs was studied in the mice plasma and brain homogenate at 37 °C. The Kdisapp and t1/2 of the prodrugs in plasma and brain homogenate were calculated by linear regression of the peak area against time (Table 2).

[8] = Metabolic stability in mice brain homogenate; type: in vitro ADME; settings: 37 °C
Method: as §2, §3

[9] = brain, analyte ibuprofen (dosed or released), before hydrolysis, 10 mg/kg tail vein
[10] = Kunming, mouse, iv, brain, analyte intact prodrug, before hydrolysis, 10 mg/kg tail vein

AUC(0–t) [2]: 2782.42 ± 176.55 µg·min/g
AUC(0-t) [2, 9]: 2782.42 ± 176.55 µg·min/g
Structure (SMILES): CC(C)Cc1ccc(C(C)C(=O)O)cc1 (centres unmarked) [Ibuprofen, reference compound]
viability at 10 µM (PC12 cells [1]): 74.1%
TTC red-staining rate compared with the sham group [3]: 48.09%
SOD activity [4]: did not obviously reverse the decrease of SOD activity
MDA level [4]: 192.42%

Cmax [2, 10]: 26400 ± 1970 ng/g
MRT [2, 10]: 2.73 h
Tmax [2, 10]: 0.25 h
AUC(0–t) [2]: 7308.11 ± 447.86 µg·min/g
AUC(0-t) [2, 9]: 3393.98 ± 257.39 µg·min/g
AUC(0-t) ([2]; brain, analyte intact prodrug, before hydrolysis, 10 mg/kg tail vein): 3459.18 ± 223.76 µg·min/g
Kdisapp ([6]; pH 2.5 phosphate buffer): 1.07e-05 s⁻¹
half-life at 50 μg/ml ([6]; pH 2.5 phosphate buffer): 18.1 h
Kdisapp ([6]; pH 5.0 phosphate buffer): 3.86e-06 s⁻¹
half-life at 50 μg/ml ([6]; pH 5.0 phosphate buffer): 49.9 h
Kdisapp ([6]; pH 7.4 phosphate buffer): 1.5e-05 s⁻¹
half-life at 50 μg/ml ([6]; pH 7.4 phosphate buffer): 12.8 h
Kdisapp ([6]; pH 8.0 phosphate buffer): 1.74e-05 s⁻¹
half-life at 50 μg/ml ([6]; pH 8.0 phosphate buffer): 11.1 h
Kdisapp [7]: 0.000187 s⁻¹
half-life at 50 μM ([7]; mouse): 1.03 h
Kdisapp [8]: 0.000542 s⁻¹
half-life at 50 μM ([8]; mouse): 0.355 h
Structure (SMILES): CC(C)Cc1ccc(C(C)C(=O)OC(COC(=O)CCC(=O)OCC2OC(O)C(O)C(O)C2O)C2OC(=O)C(O)=C2O)cc1 (centres unmarked) [Glu-Vc-Ibu]
viability at 10 µM (PC12 cells [1]): 89.9%
TTC red-staining rate compared with the sham group [3]: 87.95%
SOD activity (PC12 cells [5]): markedly relieved the damage compared with others
SOD activity [4]: significant raise compared with saline group or ibuprofen group
MDA level [4]: 110.96%

From article PMC6058731, “Dual-targeting for brain-specific drug delivery: synthesis and biological evaluation” (Drug Delivery, 2018)
